These are literature values, as cited in patent publication US9211237B2, “Film foaming hydroalcoholic foam” (STIEFEL RESEARCH AUSTRALIA PTY LTD, priority 2003, dated 2015).

For the data set the following is noted: UV absorber.

As for `COc1ccc(C(=O)CC(=O)c2ccc(C(C)(C)C)cc2)cc1` [Parsol 1789, butyl methoxydibenzolymethane], the maximum absorption is given as about 360 nm. On to `CCCCC(CC)COC(=O)C=Cc1ccc(OC)cc1` (centres unmarked) [Parsol MCX, octinoxate], for which the maximum absorption is recorded as 308 nm.
